Test results taken from PMC7822874, “Chemoprotective antimalarials identified through quantitative high-throughput screening of Plasmodium blood and liver stage parasites” (Scientific Reports, 2021).
Several values for one entry are separate records, joined by “and”; a condition that tells them apart may be missing. Equal entries are not always repeated. Where two headings read alike, the source gives them in different places.

Tests used:
[1] = tested on: P. falciparum Dd2 Cytb G131S; test: SYBR Green ABS proliferation assay, NCGC00374598 selected clone C11; assay type: cell-based, Plasmodium falciparum; details: second value triple, c6, […]; for AC50: Plasmodium falciparum, DD2, cytochrome b mutant line, read-out: log AC50, mean (converted); for log AC50, mean: cytochrome b mutant line
In short: (§1)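 72 h SYBR Green-I read; % response = relative growth vs controls. Clones from resistance selection, cloned by limiting dilution; 37 °C, 5% CO2/5% O2/90% N2.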

[2] = tested on: P. falciparum Dd2 Cytb V259L; test: SYBR Green ABS proliferation assay, NCGC00473217 selected clone F06; assay type: cell-based, Plasmodium falciparum; parameters: log AC50, mean: unit: log M; details: third value triple, c9, […]; for AC50: Plasmodium falciparum, DD2, cytochrome b mutant line, read-out: log AC50, mean (converted); for log AC50, mean: cytochrome b mutant line
In short: as §1

[3] = tested on: P. falciparum Dd2 Cytb A122D; test: SYBR Green ABS proliferation assay, NCGC00473217 selected clone F12; assay type: cell-based, Plasmodium falciparum; parameters: log AC50, mean: unit: Log[M]; details: fourth value triple, c12, […]; for AC50: Plasmodium falciparum, DD2, cytochrome b mutant line, read-out: log AC50, mean (converted); for log AC50, mean: cytochrome b mutant line
In short: as §1

[4] = tested on: P. falciparum Dd2 Cytb F123L; test: SYBR Green ABS proliferation assay, NCGC00473217 selected clone G08; assay type: cell-based, Plasmodium falciparum; parameters: log AC50, mean: unit: log10(M); details: fifth value triple, c15, […]; for AC50: Plasmodium falciparum, DD2, cytochrome b mutant line, read-out: log AC50, mean (converted); for log AC50, mean: cytochrome b mutant line
Description: As resistance selection studies implicated the parasite cytochrome bc1 complex in mediating reduced parasite susceptibility to both NCGC00473217 and NCGC00374598, we leveraged these drug-selected parasites to test for altered drug response to a panel of antimalarial compounds.
The P. falciparum parasite Dd2 line was cultured in vitro using standard conditions. […] Tissue culture flasks and assay plates were incubated at 37 °C under a gas mixture of 5% CO2, 5% O2 and 90% N2. […] Significant differences were assessed using two-sided Student’s t-tests. All HTS assays were stopped and read at 72 h. Percent response values represent relative growth as judged by SYBR Green-I fluorescence intensity values normalized to controls.
Fresh uninfected RBCs (0.5% hematocrit) were added on day 7 and media was changed every other day. […] Resistant parasites were maintained under drug media at a volume of 50 mL until a high parasitemia (> 5%) was achieved. Aliquots of the bulk resistant cultures were frozen in cryovials before cloning by limiting dilution in 96-well plates (seeded at 0.25 or 0.5 parasites/well)[70]. After 3 weeks of cloning, we screened for positive wells by flow cytometry with SYBR Green-stained cells. […] Parasites were harvested by saponin lysis at the trophozoite stage and genomic DNA was extracted using the QIAamp DNA Blood Midi Kit (Qiagen, Germantown, MD)[71].

[5] = tested on: luciferase-expressing P. berghei liver stage parasites in HepG2 cells; test: Inhibition of liver-stage development assay (ILSDA), Method 2 (WRAIR, 96-well); assay type: cell-based, Plasmodium berghei; details: Method 2, dose response; for Activity direction (Decrease / Inactive): P. berghei liver stage; for AC50: Plasmodium berghei, HepG2, P. berghei liver stage
[6] = tested on: Plasmodium falciparum Dd2 asexual blood stage parasites; test: microbe, parasite or virus in culture; parameters: species or system Plasmodium falciparum Dd2 in human erythrocytes; single determination (one 11-point concentration-response curve); details: Plasmodium falciparum, DD2, Erythrocyte, 72 h; read-out: AC50
[7] = tested on: T1, Plasmodium falciparum Dd2-attB (parental line), asexual blood stages; test: microbe, parasite or virus in culture; parameters: replicate k of 3 (each line is one of three independent assays; the three lines of one compound and parasite line follow each other); details: n = 1; for Individual replicates / Log AC50 (M): 72 h
T1 construct: Dd2-attB, the isogenic parental line
In short: (§2)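 Only some compounds were profiled here. Each was assayed three independent times against the Dd2-attB parent and its yeast-DHODH-overexpressing derivative.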

[8] = tested on: T2, Plasmodium falciparum Dd2-attB-ScDHODH (transgenic line expressing yeast DHODH), asexual blood stages; test: organism not typed; parameters: replicate k of 3 (each line is one of three independent assays; the three lines of one compound and parasite line follow each other); details: 72 h, n = 1
T2 construct: Dd2-attB-ScDHODH, the transgenic line that expresses yeast DHODH
In short: as §2

Row | SMILES | AC50 [1] [µM] | AC50 [2] [µM] | AC50 [3] [µM] | AC50 [4] [µM] | AC50 [6] [µM] | also measured
1 | CC(C)c1nc2c(c(-c3ccc(O)cc3)n1)CCN(Cc1cccc3ccccc13)CC2 [NCGC00480323-01] | 4.06 | 4.55 | 4.73 | 4.22 |  | Activity direction (Decrease / Inactive) [5]: Inactive
2 | CCc1nc2c(c(-c3ccc(O)cc3)n1)CCN(Cc1ccccc1C(F)(F)F)CC2 [NCGC00480300-01] | 3.9 | 4.73 | 4.22 | 4.06 | 2.99 | 
3 | CC(C)c1nc2c(c(-c3ccc(O)cc3)n1)CCN(Cc1ccc(OC(F)(F)F)cc1)CC2 [NCGC00480325-01] | 5.31 | 8.73 | 6.43 | 6.68 | 2.99 | 
4 | CN(C)c1nc2c(c(=O)[nH]1)CCN(Cc1ccccc1Br)CC2 [NCGC00440591-01] | 6.93 | 13.3 | 5.73 | 1.44 | 9.44 | 
5 | Oc1ccc(-c2nc(C3CC3)nc3c2CCN(Cc2ccc(F)cc2)CC3)cc1 [NCGC00480352-01] | 7.78 | 7.5 |  | 6.93 |  | log AC50, mean [3]: -4.975; Individual replicates / Log AC50 (M) [7]: -5.2986 Log AC50 (M) and -5.2486 Log AC50 (M); AC50 ([7]; Plasmodium falciparum, DD2, 72 h, read-out: Individual replicates / Log AC50 (converted)): 5.64 µM; Individual replicates / Log AC50 (M) [8]: -5.1486 Log AC50 (M) (2×) and -5.1986 Log AC50 (M)
6 | O=c1[nH]c(N2CCOCC2)nc2c1CCN(Cc1ccccc1C(F)(F)F)CC2 [NCGC00440637-01] | 3.61 | 8.09 | 2.66 | 0.618 | 4.73 | 
7 | O=C(O)C(F)(F)F.Oc1ccc(-c2nc(C3CC3)nc3c2CCN(Cc2ccc(F)cc2)CC3)cc1 [NCGC00480352-02] |  |  |  |  |  | log AC50, mean [1]: -5.315; log AC50, mean [2]: -5.399; log AC50, mean [3]: -5.349; log AC50, mean [4]: -5.432; Individual replicates / Log AC50 (M) [7]: -4.9986 Log AC50 (M) and -5.0986 Log AC50 (M) (2×); Individual replicates / Log AC50 (M) [8]: -5.0486 Log AC50 (M) (2×) and -4.8486 Log AC50 (M)
8 | CCc1nc2c(c(-c3ccc(O)cc3)n1)CCN(Cc1ccc(OC)cc1)CC2 [NCGC00480297-01] | 5.11 | 5.11 | 6.18 | 5.31 | 6.68 | 
9 | CCCN1C(c2ccccc2)=NS(=O)(=O)c2cc(NC(=O)c3cccs3)ccc21 [NCGC00532332-01] | 0.861 | 4.32 | 1.53 | 2 |  | Activity direction (Decrease / Inactive) [5]: Decrease; AC50 ([5]; read-out: AC50): 0.035 µM; AC50 ([5]; read-out: Log AC50 (converted)): 0.0355 µM
10 | CC(C)c1nc2c(c(-c3ccc(O)cc3)n1)CCN(Cc1ccc(C(F)(F)F)cc1)CC2 [NCGC00480320-01] | 3.76 | 4.73 | 4.91 | 4.55 | 5.31 | 
11 | CCCN1C(c2ccccc2)=NS(=O)(=O)c2cc(NC(=O)c3ccc(F)cc3)ccc21 [NCGC00532331-01] | 0.71 | 2.33 | 1.85 | 3.3 |  | Activity direction (Decrease / Inactive) [5]: Decrease; AC50 ([5]; read-out: AC50): 17.8 µM; AC50 ([5]; read-out: Log AC50 (converted)): 17.8 µM
12 | O=C(O)C(F)(F)F.Oc1ccc(-c2nc(C3CC3)nc3c2CCN(CC2CCCCC2)CC3)cc1 [NCGC00480361-02] |  |  |  |  |  | log AC50, mean [1]: -5.282; log AC50, mean [2]: -5.515; log AC50, mean [3]: -5.499; log AC50, mean [4]: -6.465; Individual replicates / Log AC50 (M) [7]: -5.2486 Log AC50 (M); Individual replicates / Log AC50 (M) [8]: -5.0486 Log AC50 (M) and -5.1986 Log AC50 (M)
13 | COc1ccc(-c2nc(C3CC3)nc3c2CCN(Cc2cccnc2)CC3)cc1 [NCGC00476959-01] | 13.3 | 18.1 | 19.5 | 13.8 | 13.3 | 
14 | O=[S+]([O-])(c1cccs1)N1CCc2nc(C3CC3)nc(-c3ccc(Cl)cc3)c2CC1 [NCGC00476969-01] | 7.78 | 11.9 | 13.8 | 12.3 |  | Activity direction (Decrease / Inactive) [5]: Inactive
15 | CN(C)c1nc2c(c(=O)[nH]1)CCN(Cc1ccc(F)cc1Cl)CC2 [NCGC00440505-01] | 6.18 | 10.2 | 5.51 | 1.74 | 10.6 | 
16 | CC(C)c1nc2c(c(-c3ccc(O)cc3)n1)CCN(Cc1ccccc1C(F)(F)F)CC2 [NCGC00480324-01] | 4.06 | 4.73 | 4.55 | 4.22 | 4.73 | 
17 | c1ccc(OCCNc2nc(-c3cccnc3)nc3c2CCNCC3)cc1 [NCGC00443183-01] | 6.93 | 5.73 | 7.21 | 5.11 |  | Activity direction (Decrease / Inactive) [5]: Inactive
18 | COc1ccc(-c2nc(C3CC3)nc3c2CCN(S(=O)(=O)c2ccccc2)CC3)cc1 [NCGC00374642-01] | 13.3 | 16.1 | 14.4 | 16.1 |  | 
19 | Cc1ccc(CN2CCc3nc(C4CC4)nc(-c4ccc(O)cc4)c3CC2)cc1 [NCGC00480348-01] | 7.21 | 6.93 | 7.78 | 6.68 | 4.73 | 
20 | CCCN1C(CC(C)C)=N[S+](=O)([O-])c2cc(NCc3ccc(F)cc3)ccc21 [NCGC00531784-01] | 4.15 | 11.9 | 14.2 | 12.6 |  | 
21 | O=c1[nH]c(N2CCOCC2)nc2c1CCN(Cc1cc(Br)ccc1F)CC2 [NCGC00440663-01] | 6.68 | 23.7 | 4.91 | 3.61 | 5.31 | 
22 | O=C(c1ccc(C(F)(F)F)cc1)N1CCc2nc(C3CC3)nc(-c3ccc(Cl)cc3)c2CC1 [NCGC00476963-01] | 12.8 | 15.8 | 15 | 8.41 | 13.3 | 
23 | O=c1[nH]c(N2CCOCC2)nc2c1CCN(Cc1ccccc1Br)CC2 [NCGC00440625-01] | 6.43 | 9.44 | 6.93 | 1.19 | 15 | 
24 | CCCN1C(CC2CCC2)=N[S+](=O)([O-])c2cc(NC(=O)c3cccs3)ccc21 [NCGC00537664-01] | 0.466 | 1.19 | 1.36 | 1.78 |  | 
25 | CN(C)c1nc2c(c(=O)[nH]1)CCN(Cc1ccc(Br)cc1)CC2 [NCGC00440593-01] | 5.51 | 9.79 | 4.55 | 1.33 | 13.3 | 
26 | CCCN1C(Cc2ccccc2)=N[S+](=O)([O-])c2cc(NC(=O)c3ccc(F)cc3)ccc21 [NCGC00532338-01] | 0.0893 | 0.767 | 3.17 | 0.356 |  | 
27 | COc1ccc(-c2nc(C(C)C)nc3c2CCN(C(=O)c2cccc(Cl)c2)CC3)cc1 [NCGC00479504-01] | 15.5 | 16.8 | 16.1 | 11.9 |  | 
28 | CCc1nc2c(c(-c3ccc(O)cc3)n1)CCN(Cc1cccn1C)CC2 [NCGC00480312-01] | 18.8 | 17.4 | 14.4 | 11.4 |  | 
29 | CCc1nc2c(c(-c3ccc(Cl)cc3)n1)CCN(Cc1ccc(NC(C)=O)cc1)CC2 [NCGC00476919-01] | 12.8 | 15 | 11.4 | 2.03 |  | 
30 | CC(C)c1nc2c(c(-c3ccc(O)cc3)n1)CCN(CC1CCCCC1)CC2 [NCGC00480317-01] | 5.73 | 5.73 | 8.41 | 5.11 | 4.73 | 
